How the values were obtained:
[1] = Toxicity in Sprague-Dawley rat assessed as fasciculation 2.5 to 7.5 mg/kg, po administered once daily for 4 weeks; assay type: organism-based; settings: in vivo, 672 h, dose 2.5-7.5 mg/kg
[2] = molecular target: Glucocorticoid receptor (Homo sapiens) (UniProt P04150); test: Binding affinity to GR receptor (unknown origin) at 10 uM by radioligand binding assay relative to control
[3] = Toxicity in male Sprague-Dawley rat assessed as minimal corneal neovascularization at 7.5 mg/kg, po administered once daily for 4 weeks; assay type: organism-based; settings: in vivo, 672 h
[4] = Plasma protein binding in dog assessed as unbound fraction by LC-MS/MS analysis; assay type: ADME, cell-free, Canis lupus familiaris
[5] = molecular target: Cannabinoid receptor 2 (Homo sapiens) (UniProt P34972); test: Binding affinity to CB2 (unknown origin) at 10 uM by radioligand binding assay relative to control
[6] = Mutagenicity in Salmonella typhimurium TA102 by Ames test; assay type: toxicity; settings: salmonella enterica subsp. enterica serovar typhimurium
[7] = molecular target: Alpha-2A adrenergic receptor (Homo sapiens) (UniProt P08913); test: Binding affinity to alpha 2A (unknown origin) at 10 uM by radioligand binding assay relative to control
[8] = Toxicity in female Sprague-Dawley rat assessed as slow respiration at 7.5 mg/kg, po administered once daily for 4 weeks; assay type: organism-based; settings: in vivo, 672 h
[9] = Toxicity in male Beagle dog assessed as change in food consumption at 0.75 to 2.5 mg/kg, IG administered once daily for 4 weeks and measured after 4 weeks; assay type: organism-based, Canis lupus familiaris; settings: in vivo, po, 1344 h, dose 0.75-2.5 mg/kg, time 8 weeks
[10] = Mutagenicity in Salmonella typhimurium TA97a by Ames test; assay type: toxicity; settings: salmonella enterica subsp. enterica serovar typhimurium
[11] = molecular target: T1, 5-hydroxytryptamine receptor 2C (Homo sapiens) (UniProt P28335); test: Agonist activity at recombinant human 5-HT2CR expressed in HEK293 cells incubated for 2 hrs by measuring maximum efficacy by FLIPR calcium assay relative to control; assay type: functional, cell-based; settings: filed as agonist
T1 sequence (whole entry): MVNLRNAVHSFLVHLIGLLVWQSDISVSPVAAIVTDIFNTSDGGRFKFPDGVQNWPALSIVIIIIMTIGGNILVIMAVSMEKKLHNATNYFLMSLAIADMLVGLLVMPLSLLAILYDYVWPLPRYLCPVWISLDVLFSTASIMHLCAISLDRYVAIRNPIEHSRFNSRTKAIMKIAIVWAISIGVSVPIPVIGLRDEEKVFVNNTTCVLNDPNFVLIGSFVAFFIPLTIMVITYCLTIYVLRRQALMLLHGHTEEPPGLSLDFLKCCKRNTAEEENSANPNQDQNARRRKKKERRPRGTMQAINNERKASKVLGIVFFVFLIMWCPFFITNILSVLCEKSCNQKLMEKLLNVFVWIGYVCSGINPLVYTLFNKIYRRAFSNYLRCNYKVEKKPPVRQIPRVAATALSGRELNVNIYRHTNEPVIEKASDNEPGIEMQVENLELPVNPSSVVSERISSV

[12] = Toxicity in female Beagle dog assessed as change in gross necropsy at 0.75 to 2.5 mg/kg, IG administered once daily for 4 weeks and measured after 4 weeks; assay type: organism-based, Canis lupus familiaris; settings: in vivo, po, 1344 h, dose 0.75-2.5 mg/kg, time 8 weeks
[13] = molecular target: Cytochrome P450 2C8 (Homo sapiens, UniProt P10632); test: Inhibition of CYP2C8 in human liver microsomes in presence of NADPH by LC-MS/MS analysis; assay type: ADME, Microsome
[14] = molecular target: Vasopressin V1a receptor (Homo sapiens) (UniProt P37288); test: Binding affinity to V1a receptor (unknown origin) at 10 uM by radioligand binding assay relative to control
[15] = Cardiotoxicity in conscious cynomolgus monkey assessed as change in diastolic pressure at 3.125 to 12.5 mg/kg, IG measured within 25 hrs; assay type: toxicity, organism-based, Macaca fascicularis; settings: in vivo, po, dose 3.125-12.5 mg/kg

Sequence of Alpha-2A adrenergic receptor (Homo sapiens) (P08913 whole entry): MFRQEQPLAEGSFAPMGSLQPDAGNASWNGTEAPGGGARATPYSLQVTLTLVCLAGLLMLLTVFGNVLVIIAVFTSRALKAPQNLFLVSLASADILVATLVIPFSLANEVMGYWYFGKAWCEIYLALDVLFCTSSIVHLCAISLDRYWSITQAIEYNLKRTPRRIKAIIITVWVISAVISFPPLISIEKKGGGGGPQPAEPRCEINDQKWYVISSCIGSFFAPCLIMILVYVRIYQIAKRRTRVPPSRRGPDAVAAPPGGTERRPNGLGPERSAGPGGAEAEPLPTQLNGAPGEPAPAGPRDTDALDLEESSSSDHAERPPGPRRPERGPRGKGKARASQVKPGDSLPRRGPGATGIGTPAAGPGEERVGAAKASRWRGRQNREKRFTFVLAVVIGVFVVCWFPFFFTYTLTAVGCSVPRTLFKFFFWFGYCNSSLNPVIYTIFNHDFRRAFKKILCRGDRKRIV
Sequence of Glucocorticoid receptor (Homo sapiens) (P04150 whole entry): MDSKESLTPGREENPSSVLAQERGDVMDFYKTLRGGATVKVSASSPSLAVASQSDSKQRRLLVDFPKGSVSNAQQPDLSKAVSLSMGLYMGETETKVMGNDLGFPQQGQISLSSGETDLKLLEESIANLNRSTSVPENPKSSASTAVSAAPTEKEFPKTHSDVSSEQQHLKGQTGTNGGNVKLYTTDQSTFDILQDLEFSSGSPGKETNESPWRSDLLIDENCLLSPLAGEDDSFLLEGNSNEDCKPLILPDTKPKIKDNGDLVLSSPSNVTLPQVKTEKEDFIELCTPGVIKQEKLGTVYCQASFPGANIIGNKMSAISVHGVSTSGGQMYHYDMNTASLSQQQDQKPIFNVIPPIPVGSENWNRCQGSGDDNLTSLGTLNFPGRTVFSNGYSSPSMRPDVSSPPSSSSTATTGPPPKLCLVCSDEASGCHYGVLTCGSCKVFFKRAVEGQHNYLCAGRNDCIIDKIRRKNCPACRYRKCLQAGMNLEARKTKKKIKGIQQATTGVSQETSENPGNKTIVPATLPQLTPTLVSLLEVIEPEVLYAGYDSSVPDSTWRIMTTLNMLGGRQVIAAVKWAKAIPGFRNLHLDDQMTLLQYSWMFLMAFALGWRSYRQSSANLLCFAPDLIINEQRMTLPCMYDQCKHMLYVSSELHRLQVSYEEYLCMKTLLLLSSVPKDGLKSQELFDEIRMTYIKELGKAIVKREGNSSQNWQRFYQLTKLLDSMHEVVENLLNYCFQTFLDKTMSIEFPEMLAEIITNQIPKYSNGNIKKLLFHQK
Sequence of Cytochrome P450 2C8 (P10632 whole entry): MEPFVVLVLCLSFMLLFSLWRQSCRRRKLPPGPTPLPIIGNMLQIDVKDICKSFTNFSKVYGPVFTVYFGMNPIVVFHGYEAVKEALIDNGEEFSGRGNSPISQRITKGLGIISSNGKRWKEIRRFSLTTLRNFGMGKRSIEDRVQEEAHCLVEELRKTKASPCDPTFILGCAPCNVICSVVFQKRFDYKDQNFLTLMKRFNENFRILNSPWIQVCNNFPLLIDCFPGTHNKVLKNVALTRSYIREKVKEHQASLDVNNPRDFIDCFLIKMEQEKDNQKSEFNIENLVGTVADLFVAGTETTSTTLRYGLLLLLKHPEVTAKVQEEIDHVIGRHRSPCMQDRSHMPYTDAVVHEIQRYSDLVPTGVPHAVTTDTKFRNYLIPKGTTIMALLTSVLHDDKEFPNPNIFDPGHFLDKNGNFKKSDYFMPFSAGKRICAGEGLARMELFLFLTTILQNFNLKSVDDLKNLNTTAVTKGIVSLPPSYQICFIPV
Sequence of Vasopressin V1a receptor (Homo sapiens) (P37288 whole entry, looked up): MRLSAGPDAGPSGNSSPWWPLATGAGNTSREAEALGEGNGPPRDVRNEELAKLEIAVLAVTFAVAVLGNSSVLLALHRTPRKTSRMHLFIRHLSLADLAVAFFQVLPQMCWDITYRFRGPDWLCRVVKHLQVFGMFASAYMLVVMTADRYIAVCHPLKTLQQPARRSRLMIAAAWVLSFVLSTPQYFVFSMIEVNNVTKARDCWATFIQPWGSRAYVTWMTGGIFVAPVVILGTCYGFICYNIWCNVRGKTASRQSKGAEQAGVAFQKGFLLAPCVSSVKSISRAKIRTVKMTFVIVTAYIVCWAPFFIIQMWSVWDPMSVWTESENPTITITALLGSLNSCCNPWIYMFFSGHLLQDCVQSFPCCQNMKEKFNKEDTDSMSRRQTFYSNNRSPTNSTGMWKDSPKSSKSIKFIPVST
Sequence of Cannabinoid receptor 2 (Homo sapiens) (P34972 whole entry): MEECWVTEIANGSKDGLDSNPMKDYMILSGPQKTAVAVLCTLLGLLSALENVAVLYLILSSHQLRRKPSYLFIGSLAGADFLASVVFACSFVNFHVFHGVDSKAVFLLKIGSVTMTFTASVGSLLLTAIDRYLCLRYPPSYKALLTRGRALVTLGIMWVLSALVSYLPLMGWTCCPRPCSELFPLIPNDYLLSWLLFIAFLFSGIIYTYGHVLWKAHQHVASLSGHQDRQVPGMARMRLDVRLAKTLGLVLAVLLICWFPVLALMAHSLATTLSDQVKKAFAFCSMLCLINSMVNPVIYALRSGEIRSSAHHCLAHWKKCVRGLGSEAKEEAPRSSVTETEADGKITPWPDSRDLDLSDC

c1cc2c(s1)[C@@H]1CNCCN1CC2
Activity [1]: Non-toxic
Activity [2]: 33.7%
Activity [3]: Toxic
fraction unbound [4]: 0.761
Activity [5]: 2.7%
Activity [6]: Non-toxic
Activity [7]: 72.7%
Activity [8]: Toxic
Activity [9]: Non-toxic
Activity [10]: Non-toxic
Emax [11]: 100%
Activity [12]: Non-toxic
IC50 [13]: > 50 µM
Activity [14]: 6.93%
Activity [15]: Non-toxic

Source: ChEMBL document CHEMBL6109139, “Rational Design of the First Dual Agonist at Trace Amine-Associated Receptor 1 and 5-HT2C Receptors Based on Binding Pocket Similarity for the Treatment of Schizophrenia and Alzheimer's Disease-Related Psychosis” (J Med Chem, 2025)
